Earlier results, collected in patent US20060069069A1, “Methods and compositions for the administration of calcium chelators, bisphosponates and/or citrate compounds and their pharmaceutical uses” (Nanobac Pharmaceuticals, Inc., priority 2004, published 2006).

System: bone resorption
Settings: versus etidronate; both in vitro and in vivo

Question: For `NCCCC(O)(P(=O)(O)O)P(=O)(O)O` [alendronate], which “potency relative to etidronate for the prevention of bone resorption” value is on record?
Answer: approximately 700 fold
